# Measured values from patent US20220016251A1, “LYMPHATIC MEDIATED TRANSPORT-BASED TRIGLYCERIDE PRODRUG, AND PREPARATION METHOD THEREFOR” (SHENYANG PHARMACEUTICAL UNIVERSITY, priority 2019, published 2022).
# Like-named read-outs stand apart in the source and are kept apart here.
# Key:
# [1] = Stability in lipoprotein lipase-containing plasma; format: in vitro ADME; conditions: plasma added with lipoprotein lipase, after continuous incubation
# Protocol: (§1) Emulsions prepared in Example 5 are incubated in simulated gastric juice, bile-pancreatic juice simulated intestinal juice, and lipoprotein lipase-containing plasma at 37° C., respectively; and samples are taken at predetermined time points to investigate the physical stability of the prodrug emulsion and the chemical stability of the prodrug in different media.
# [2] = system: 4T1 tumor; format: in vivo; conditions: oral, 4T1 tumor-bearing Balb/c mice
# Excerpt: It reminds us that a good pharmacodynamic result not only requires a significant pharmacokinetic result, but also that a specific release at a tumor site is very important.
# [3] = system: pancreatic lipase; assay: Digestion in bile-pancreatic juice simulated intestinal juice; format: in vitro ADME; conditions: 37° C.
# Protocol: as §1
# [4] = in vivo
# Protocol: Taking SD rats as a model, a docetaxel-triglyceride prodrug emulsion and a docetaxel solution are orally administered; a plasma concentration of a parent drug is measured; and a drug-time curve is drawn and corresponding pharmacokinetic parameters are calculated respectively based on the measured concentration (Table 2). In order to calculate the absolute bioavailability, a docetaxel solution is administered intravenously, and the content of docetaxel in the plasma is measured.
# In addition, in order to investigate whether the docetaxel-triglyceride prodrug is transported through the lymphatics, one hour before oral administration of the DTX-S-S-TG and the docetaxel solution, […] is administered intraperitoneally to inhibit the release of chylomicrons. The effect of lymphatic transport on the absorption of the prodrug is investigated.
# [5] = mouse, in vivo
# Excerpt: For 5 consecutive days, normal Balb/c mice are orally administered with the docetaxel-triglyceride prodrug emulsion synthesized in Example 4, and docetaxel solution, and intravenously injected with a docetaxel solution, and a normal saline group is used as control. The gastrointestinal toxicity is then investigated.
# [6] = system: 4T1 cells; assay: cells; format: cell-based; conditions: Mus musculus
# Excerpt: (§2) In order to investigate the tumor reduction-sensitive release of DTX-S-S-TG, 4T1 cells and KB cells are used as models to investigate the cytotoxicity of DTX-5C-TG, a DTX-S-S-TG emulsion and a docetaxel solution. […] Due to a reduction-sensitive dithio linking bridge, DTX-S-S-TG has higher drug release efficiency than DTX-5C-TG, which is linked by insensitive ester bonds. As a result, the cytotoxicity of DTX-S-S-TG is stronger than that of DTX-5C-TG. Meanwhile, due to the slow release of a sensitive prodrug, DTX-S-S-TG has lower cytotoxicity than the docetaxel solution.
# [7] = system: KB cells; assay: cells; format: cell-based; conditions: Homo sapiens
# Excerpt: as §2
# [8] = In vivo intestinal perfusion in rats
# Excerpt: The intestinal permeability of a docetaxel-triglyceride prodrug is investigated by in vivo intestinal perfusion in rats. […] In order to investigate the effect of intestinal pancreatic lipase digestion on the absorption of the prodrug, a pancreatic lipase inhibitor orlistat is administrated half an hour in advance.
compound,measurement,setting,value
Docetaxel-C5(Et)-Triglyceride Prodrug [DTX-5C(Et)-TG],release of docetaxel parent drug in plasma,[1],release the drug slowly
same,anti-tumor effect,[2],certain anti-tumor effect
same,degradation into docetaxel-monoglyceride prodrugs in intestinal juice,[3],relatively slow degradation rate
same,oral bioavailability improved versus docetaxel,"[4]; rat, in vivo, po",1.05-4.71 times
"CC(=O)O[C@@]12CO[C@@H]1C[C@H](O)[C@@]1(C)C(=O)[C@H](O)C3=C(C)[C@@H](OC(=O)[C@H](O)[C@@H](NC(=O)OC(C)(C)C)c4ccccc4)C[C@@](O)([C@@H](OC(=O)c4ccccc4)[C@H]21)C3(C)C [DTX Solution, docetaxel]",gastrointestinal toxicity (injury to intestinal segments),[5]; iv,injury to respective intestinal segments
same,gastrointestinal toxicity (injury to intestinal segments),[5]; po,slight injury to the jejunum
same,anti-tumor effect,[2],almost no anti-tumor effect
same,IC50,"[6]; 48 h, read-out: IC50 4T1 48 h",0.0166 µg/mL
same,IC50,"[6]; 72 h, read-out: IC50 4T1 72 h",0.0059 µg/mL
same,IC50,"[7]; 48 h, read-out: IC50 KB 48 h",4.9 ng/mL
same,IC50,"[7]; 72 h, read-out: IC50 KB 72 h",1.3 ng/mL
same,effect of pancreatic lipase inhibitor orlistat on absorption,"[8]; rat, in vivo",no significant effect
same,Fabs,"[4]; SD, rat, in vivo",9.4%
same,AUC(0-t),"[4]; SD, rat, in vivo, po",168 ± 125 ng·h/mL
same,Cmax,"[4]; SD, rat, in vivo, po",21 ± 6.8 ng/mL
same,Frel,"[4]; SD, rat, in vivo, po",100%
same,Tmax,"[4]; SD, rat, in vivo, po",24 ± 30 min
same,half-life,"[4]; SD, rat, in vivo, po",708 ± 504 min
same,effect of cyclophosphamide (lymphatic suppression) on oral absorption / AUC,"[4]; rat, in vivo",no significant difference in AUC
"CCCCCCCCCCCCCCCC(=O)OCC(COC(=O)CCCCCCCCCCCCCCC)OC(=O)C(CCC(=O)O[C@@H](C(=O)O[C@H]1C[C@@]2(O)[C@@H](OC(=O)c3ccccc3)[C@@H]3[C@]4(OC(C)=O)CO[C@@H]4C[C@H](O)[C@@]3(C)C(=O)[C@H](O)C(=C1C)C2(C)C)[C@@H](NC(=O)OC(C)(C)C)c1ccccc1)OC(=O)C(C)(C)C (some centres unmarked) [DTX-5C(Piv)-TG, Docetaxel-C5(Piv)-Triglyceride Prodrug]",release of docetaxel parent drug in plasma,[1],hardly releases the docetaxel parent drug
same,degradation into docetaxel-monoglyceride prodrugs in intestinal juice,[3],relatively slow degradation rate
same,"permeability coefficient Ka, increase compared with docetaxel solution",[8]; in vivo intestinal perfusion in rats,1.15 times
same,blood concentration,"[4]; oral, SD rats",lower than a detection limit
